≈ marks a conversion by molar mass, not a printed value. Where two headings read alike, the source gives them in different places. A value given as a limit tells only on which side of the number the result lay.

Common to all, as to assay type: cell-based
For test [1], the system named is Enterobacterales (ENT). Put plainly: Broth microdilution against US UTI pathogens 2019-2020. The note with it: for % susceptible; CLSI: cefuroxime: oral breakpoint. On the procedure: (§1) This study assessed the in vitro activity of tebipenem and comparator agents against Enterobacterales (ENT) responsible for UTIs in the US during 2019-2020. A total of 3,576 ENT recovered from urine samples during the 2019-2020 STEWARD Surveillance Program were included in the study. Isolates were collected from medical centers in all 9 US Census Regions and were centrally tested for susceptibility by reference broth microdilution method. MIC interpretation was performed based on CLSI criteria.
For orientation: Dilution methods test growth across graded concentrations, often in twofold steps.

The subject of test [2] is E. coli. The description is as above. As to conditions: E. coli (2,339); for % susceptible; CLSI: cefuroxime: oral breakpoint. The method, then:
as §1

For test [3], the system named is K. pneumoniae. The description is as above. As to conditions: K. pneumoniae (511); for % susceptible; CLSI: cefuroxime: oral breakpoint. On the procedure:
as §1

For test [4], the system named is P. mirabilis. The test is described as above. The note with it: P. mirabilis (235); for % susceptible; CLSI: cefuroxime: oral breakpoint. The method, then:
as §1

In test [5] the test system is Enterobacterales overproducing AmpC. Put plainly: Broth microdilution susceptibility of isolates overexpressing AmpC. The method, then:
(§2) Frozen-form broth microdilution panels were manufactured by JMI Laboratories and contained cation-adjusted Mueller-Hinton broth. Quality assurance was performed by sterility checks, colony counts, and testing CLSI recommended quality control reference strains.

The subject of test [6] is P. aeruginosa isolates that overproduced AmpC. Described as above. On the procedure: as §2
The test system of test [7] is AmpC production in P. aeruginosa. Put plainly: AmpC induction (nitrocefin hydrolysis after drug exposure). The method, then: (§3) AmpC induction was determined as follows. Baseline MIC values were determined by broth microdilution method, as described above, for 9 Gram-negative isolates with basal expression of ampC. These isolates were cultured overnight on blood agar plates. A standardized inoculum made from fresh overnight plate cultures was added to flasks containing 50 mL of Luria-Bertani (LB) broth and incubated by shaking at 37° C. to OD600 of 0.3. […] These cultures were incubated under shaking conditions. A 40 mL aliquot of bacterial cultures was sampled at time 0 and 2 hours after drug exposures. Each sample aliquot was harvested by centrifugation and the supernatant was discarded.
(§4) Protein crude extract preparations were made in 200 μL of BugBusterR (Novagen, Darmstadt, Germany) per manufacturer instructions and cell debris was removed by centrifugation. Protein concentrations were determined in each crude extract by standard methodologies.
(§5) AmpC induction was measured by the intensity of β-lactamase hydrolytic activity against 0.1 mM nitrocefin in 0.1 M phosphate buffer at pH 7.0 using spectrophotometry at 482 nm (Δ absorbance/minute/mg of protein). The drug exposure conditions that caused a >4-fold increase in hydrolysis activity compared to the baseline were subjected to postinduction experiments. Briefly, cells were grown under the same conditions as before and tested for susceptibility by broth microdilution.

The test system of test [8] is AmpC production in Enterobacterales. The description is as above. As to conditions: tebipenem/imipenem except for C. koseri and S. marcescens. The method, then:
as §3, §4, §5

Test [9] concerns methicillin-susceptible staphylococci, including MSSA, MSSE, and other MSCONS. Put plainly: Broth microdilution against Gram-positive clinical isolates, summary. The method, then:
The purpose of this study was to investigate the in vitro activity of tebipenem and comparator agents, including ertapenem and meropenem, against a recent collection of Gram-positive isolates associated with clinical infections. The susceptibility of 580 Gram-positive organisms were tested, including: Methicillin-susceptible Staphylococcus aureus (MSSA, 489 isolates), Methicillin-susceptible Staphylococcus epidermidis (MSSE, 31), other methicillin-susceptible coagulase-negative staphylococci (MSCONS, 29), and Vancomycin-susceptible Enterococcus faecalis (31). Bacterial species were identified by JMI Laboratories using standard microbiology methods and matrix-assisted laser desorption ionization-time of flight mass spectrometry (Bruker Daltonics, Bremen, Germany). The isolates were collected in 2018 and 2019 as part of the SENTRY surveillance program and selected to be representative of these species with 45.0% from the United States, 44.3% from Europe, 5.3% from the Asia-Pacific region, and 5.3% from Latin America. Isolates are primarily from pneumonia in hospitalized patients (498 isolates; 85.9%), urinary tract infections (42 isolates; 7.2%), and bloodstream infections (38 isolates; 6.6%). Isolates were tested in a central laboratory (JMI Laboratories) for antimicrobial susceptibility using the CLSI M07 (2018) reference broth microdilution method. […]

The subject of test [10] is Vancomycin-susceptible Enterococcus faecalis. Put plainly: Broth microdilution against Gram-positive clinical isolates. As to conditions: E. faecalis. On the procedure: (§6) The purpose of this study was to investigate the in vitro activity of tebipenem and comparator agents, including ertapenem and meropenem, against a recent collection of Gram-positive isolates associated with clinical infections. The susceptibility of 580 Gram-positive organisms were tested, including: Methicillin-susceptible Staphylococcus aureus (MSSA, 489 isolates), Methicillin-susceptible Staphylococcus epidermidis (MSSE, 31), other methicillin-susceptible coagulase-negative staphylococci (MSCONS, 29), and Vancomycin-susceptible Enterococcus faecalis (31). Bacterial species were identified by JMI Laboratories using standard microbiology methods and matrix-assisted laser desorption ionization-time of flight mass spectrometry (Bruker Daltonics, Bremen, Germany). The isolates were collected in 2018 and 2019 as part of the SENTRY surveillance program and selected to be representative of these species with 45.0% from the United States, 44.3% from Europe, 5.3% from the Asia-Pacific region, and 5.3% from Latin America. Isolates are primarily from pneumonia in hospitalized patients (498 isolates; 85.9%), urinary tract infections (42 isolates; 7.2%), and bloodstream infections (38 isolates; 6.6%). Isolates were tested in a central laboratory (JMI Laboratories) for antimicrobial susceptibility using the CLSI M07 (2018) reference broth microdilution method. JMI Laboratories produced frozen-form 96-well panels and used cation-adjusted Mueller-Hinton broth (CA-MHB) as the testing medium. All categorical interpretations used CLSI M100 (2021) and EUCAST v10.0 (2021) breakpoint criteria, where published. Quality control organisms include Escherichia coli ATCC 25922, Escherichia coli ATCC 35218, Enterococcus faecalis ATCC 29212, Pseudomonas aeruginosa ATCC 27853, and Staphylococcus aureus ATCC 29213 were tested concurrently with clinical isolates.

The subject of test [11] is Methicillin-susceptible Staphylococcus aureus (MSSA). Described as above. The method, then:
as §6

For test [12], the system named is Methicillin-susceptible Staphylococcus epidermidis (MSSE). The test is described as above. The method, then: as §6
Test [13] relates to other methicillin-susceptible coagulase-negative staphylococci (MSCONS). The description is as above. The method, then: The purpose of this study was to investigate the in vitro activity of tebipenem and comparator agents, including ertapenem and meropenem, against a recent collection of Gram-positive isolates associated with clinical infections. The susceptibility of 580 Gram-positive organisms were tested, including: […] Bacterial species were identified by JMI Laboratories using standard microbiology methods and matrix-assisted laser desorption ionization-time of flight mass spectrometry (Bruker Daltonics, Bremen, Germany). […] Isolates were tested in a central laboratory (JMI Laboratories) for antimicrobial susceptibility using the CLSI […] (2018) reference broth microdilution method. JMI Laboratories produced frozen-form 96-well panels and used cation-adjusted Mueller-Hinton broth (CA-MHB) as the testing medium. […] Quality control organisms include Escherichia coli ATCC 25922, Escherichia coli ATCC 35218, Enterococcus faecalis ATCC 29212, Pseudomonas aeruginosa ATCC 27853, and Staphylococcus aureus ATCC 29213 were tested concurrently with clinical isolates.

Test [14] relates to E. coli. Put plainly: Susceptibility of E. coli from urinary tract infections, 18 EU countries 2020 (STEWARD). The note with it: all E. coli. On the procedure:
The study assessed the prevalence of resistance and evaluated the activity of oral tebipenem (TBP) and comparators against EC from urinary tract infections.
Results were interpreted using EUCAST criteria. […] ESBL phenotypes were determined by CLSI criteria and sequenced to identify CTX-M-15 genotype and clonal complex ST131.

[15] abbreviates: Staphylococcus aureus, 489 isolates.
Where [16] appears, read: Staphylococcus epidermidis, 31 isolates.
The mark [17] stands for this setting: P. aeruginosa overproducing AmpC.

`CC(C)(O/N=C(\C(=O)N[C@@H]1C(=O)N2C(C(=O)[O-])=C(C[n+]3ccccc3)CS[C@H]12)c1csc(N)n1)C(=O)O` [Ceftazidime]: the “% susceptible; CLSI” value in test [1] (All (3,567)) was “(88.1%)”; in test [2], “(89.3) %”; in test [3] it was “(86.1) %”; in test [4], “(98.7) %”; in test [4] (listed as CAZ), 98.7%. Further, in test [1] (against ENT, EC, and KPN), the susceptibility was 86.1-89.3%. The MIC90 in test [1] (against ENT, EC, and KPN, read-out: MIC90) is 8 to 16 µg/mL (≈ 14.6 to 29.3 µM); in [5] (Enterobacterales (36), read-out: MIC90), greater than 32 µg/mL. The “CLSI %1” value in test [5] (Enterobacterales (36)) is 11.4%. Also, the “CLSI % R” value in test [5] (Enterobacterales (36)) is given as 60.0%; in test [6] (P. aeruginosa (32)), 71.9%. Moreover, the “CLSI % S” value in [5] (Enterobacterales (36)) worked out at 28.6%; in test [6] (P. aeruginosa (32)) it was 15.6%. In [5] (Enterobacterales (36), read-out: MIC50), the MIC50 worked out at 32 µg/mL (≈ 58.5 µM). Also, the entries for the “effect of exposure on production of AmpC” value in [7] and in test [8] were “increased the production of AmpC” and “did not seem to affect production of AmpC”, respectively.
For the compound `C[C@@H](O)[C@H]1C(=O)N2C(C(=O)O)=C(SC3CN(C4=NCCS4)C3)[C@H](C)[C@H]12` [Tebipenem, tebipenem], the “MIC50 and MIC90 values, range over species groups” value in [9] fell in the range of 0.015 to 0.03 mg/L. Further, the “activity fold greater than ertapenem” value in test [9] is given as 16- to 32 fold. Besides, the MIC90 in test [1] (against ENT, EC, and KPN) is 0.015 to 0.06 µg/mL (≈ 0.0391 to 0.156 µM); in test [10] (Enterococcus faecalis, 31 isolates), 1 µg/mL (≈ 2.61 µM); in test [11] (setting [15]), 0.03 µg/mL (≈ 0.0782 µM); in test [12] (setting [16]) it was 0.015 µg/mL (≈ 0.0391 µM); in test [13] (29 isolates), 0.03 µg/mL (≈ 0.0782 µM); in test [5] it was 0.25 µg/mL (≈ 0.652 µM). Further, the MIC90 in [5] (Enterobacterales (36)) turned out to be 0.25 μ/ml; in test [6] (setting [17]) it was 4 µg/mL (≈ 10.4 µM). The “MIC90 fold lower than ertapenem” value in test [10] stood at 16 fold; in test [11], 8 fold; in [12], 32 fold; in [13], 32 fold. Moreover, the “MIC90 fold lower than meropenem” value in test [10] is recorded as “at least 2 fold”. Besides, the “concentration inhibiting all isolates” value was no more than 1 mg/L in test [10] and no more than 1 µg/mL in test [5] (Enterobacterales overproducing AmpC). Moreover, the MIC50 in test [11] (setting [15]) was determined as 0.015 µg/mL (≈ 0.0391 µM); in test [12] (setting [16]), 8 ng/mL (≈ 0.0209 µM); in test [13] (29 isolates), 0.015 µg/mL (≈ 0.0391 µM); in test [5] it was 0.03 µg/mL (≈ 0.0782 µM); in test [5] (Enterobacterales (36)), 0.03 μ/ml; in [6] (setting [17]), 4 µg/mL (≈ 10.4 µM). Moreover, the figures for the MIC range in test [5] (Enterobacterales (36)) and in test [6] (P. aeruginosa (32)) were 0.015 to 1 μ/ml and 2 to 8 μ/ml, respectively. The “effect of exposure on production of AmpC” value in test [7] is “increased the production of AmpC”; in test [8], “increased production of AmpC”.
Consider `CC[C@H]1OC(=O)[C@H](C)[C@@H](O[C@H]2C[C@@](C)(OC)[C@@H](O)[C@H](C)O2)[C@H](C)[C@@H](O[C@@H]2O[C@H](C)C[C@H](N(C)C)[C@H]2O)[C@](C)(O)C[C@@H](C)C(=O)[C@H](C)[C@@H](O)[C@]1(C)O` [erythromycin], for which the results for the Susceptibility rate in [11] and in test [12] were 65.6% and 54.8%, respectively. In test [13], the “susceptibility (% S)” value is on record as 54.8%.
As to trimethoprim-sulfamethoxazole [TMP-SMX], the MIC50 in test [1] (All (3,567)), in test [2], in test [3] and in test [4] was no more than 0.12 mg/mL each time. The MIC90 was greater than 4000 µg/mL in test [1] (All (3,567)), greater than 4 mg/mL in test [2], greater than 4 mg/mL in test [3] and greater than 4 mg/mL in [4]. Moreover, the entries for the “% susceptible; CLSI” value in test [1] (All (3,567)), in test [2] and in test [3] were “(73.9) %”, “(69.2) %” and “(79.8) %”, respectively. For the same compound, in test [14], the “prevalence of resistant phenotype” value turned out to be 30.1%. Also, the “susceptibility (% S)” value in [13] is reported as 83.9%.

Source of the values: US12048691B2 (SPERO THERAPEUTICS, INC., priority 2020, dated 2024).
